# Legend:
# [1] = Cytotoxicity against human HeLaS3 cells; assay type: functional, cell-based; conditions: HeLa S3
# CCRF S-180 = experiment: Antitumor activity against mouse S180 cells xenografted ICR mouse at 50 mg/kg, ip relative to control; assay type: functional; conditions: route intraperitoneal
compound,measurement,setting,value
COC1=C(OC)C(=O)c2c(O)c(OC)cc(O)c2C1=O [TRICROZARIN B],IC50,[1],7 ng/mL
same,T/C,CCRF S-180,146%
